Among the data in patent US12590091B2, “1H-pyrrolo[3,2-C]pyridine and 1H-pyrrolo[2,3-C]pyridine derivatives as TLR9 inhibitors for the treatment of fibrosis” (BRISTOL-MYERS SQUIBB COMPANY, priority 2020, dated 2026) are IC50 values, retold here.

The target of assay [1] is T1, human TLR7 (Homo sapiens, UniProt Q9NYK1).
T1 construct: host or cells: HEK-Blue cells
T1 sequence (Q9NYK1 27-1049): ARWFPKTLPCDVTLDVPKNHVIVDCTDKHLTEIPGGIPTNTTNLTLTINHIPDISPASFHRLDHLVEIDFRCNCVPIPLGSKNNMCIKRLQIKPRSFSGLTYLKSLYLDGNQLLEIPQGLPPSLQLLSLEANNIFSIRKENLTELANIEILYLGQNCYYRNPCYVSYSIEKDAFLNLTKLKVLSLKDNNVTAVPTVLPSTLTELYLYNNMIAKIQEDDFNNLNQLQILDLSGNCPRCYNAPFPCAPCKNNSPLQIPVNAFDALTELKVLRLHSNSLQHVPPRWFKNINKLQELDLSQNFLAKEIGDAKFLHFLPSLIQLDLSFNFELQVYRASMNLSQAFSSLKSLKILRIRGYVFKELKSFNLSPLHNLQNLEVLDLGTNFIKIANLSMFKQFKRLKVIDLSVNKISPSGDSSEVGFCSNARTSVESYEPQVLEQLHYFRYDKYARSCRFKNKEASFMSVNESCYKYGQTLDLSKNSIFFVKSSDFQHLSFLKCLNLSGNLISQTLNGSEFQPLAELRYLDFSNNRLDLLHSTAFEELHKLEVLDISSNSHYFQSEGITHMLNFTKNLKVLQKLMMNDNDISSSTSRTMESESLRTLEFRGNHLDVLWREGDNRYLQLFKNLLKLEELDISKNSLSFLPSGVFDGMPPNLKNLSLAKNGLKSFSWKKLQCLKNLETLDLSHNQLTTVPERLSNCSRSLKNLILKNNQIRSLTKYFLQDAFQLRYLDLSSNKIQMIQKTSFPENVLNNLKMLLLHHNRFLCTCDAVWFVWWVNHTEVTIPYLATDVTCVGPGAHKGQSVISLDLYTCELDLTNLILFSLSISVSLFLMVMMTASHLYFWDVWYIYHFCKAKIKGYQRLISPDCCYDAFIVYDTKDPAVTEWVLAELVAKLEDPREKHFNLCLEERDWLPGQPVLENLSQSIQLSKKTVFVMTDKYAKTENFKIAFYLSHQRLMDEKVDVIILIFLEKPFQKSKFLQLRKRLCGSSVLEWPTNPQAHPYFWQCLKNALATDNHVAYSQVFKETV
Briefly: TLR7 inhibition reporter assay (HEK-Blue cells, SEAP reporter). It counts as cell-based. To be noted: HEK-Blue cells overexpressing human TLR7, stimulated with gardiquimod 7.5 μM, 22 hour incubation. On the procedure:
(§1) TLR7/8/9 Inhibition Reporter Assays
(§2) HEK-Blue™-cells (Invivogen) overexpressing human TLR7, TLR8 or TLR9 receptors were used for screening inhibitors of these receptors using an inducible SEAP (secreted embryonic alkaline phosphatase) reporter gene under the control of the IFN-β minimal promoter fused to five NF-κB and AP-1-binding sites. Briefly, cells are seeded into Greiner 384 well plates (15000 cells per well for TLR7, 20,000 for TLR8 and 25,000 for TLR9) and then treated with test compounds in DMSO to yield a final dose response concentration range of 0.05 nM-50 μM. After a 30 minute compound pre-treatment at room temperature, the cells are then stimulated with a TLR7 ligand (gardiquimod at a final concentration of 7.5 μM), TLR8 ligand (R848 at a final concentration of 15.9 μM) or TLR9 ligand (ODN2006 at a final concentration of 5 nM) to activate NF-κB and AP-1 which induce the production of SEAP. After a 22 hour incubation at 37° C., 5% CO2, SEAP levels are determined with the addition of HEK-Blue™ Detection reagent (Invivogen), a cell culture medium that allows for detection of SEAP, according to manufacturer's specifications. The percent inhibition is determined as the % reduction in the HEK-Blue signal present in wells treated with agonist plus DMSO alone compared to wells treated with a known inhibitor.
For orientation: A reporter such as luciferase makes a cellular process visible.

The target in assay [2] is T2, human TLR8 (Homo sapiens, UniProt Q9NR97).
T2 construct: host or cells: HEK-Blue cells
T2 sequence (Q9NR97 27-1041): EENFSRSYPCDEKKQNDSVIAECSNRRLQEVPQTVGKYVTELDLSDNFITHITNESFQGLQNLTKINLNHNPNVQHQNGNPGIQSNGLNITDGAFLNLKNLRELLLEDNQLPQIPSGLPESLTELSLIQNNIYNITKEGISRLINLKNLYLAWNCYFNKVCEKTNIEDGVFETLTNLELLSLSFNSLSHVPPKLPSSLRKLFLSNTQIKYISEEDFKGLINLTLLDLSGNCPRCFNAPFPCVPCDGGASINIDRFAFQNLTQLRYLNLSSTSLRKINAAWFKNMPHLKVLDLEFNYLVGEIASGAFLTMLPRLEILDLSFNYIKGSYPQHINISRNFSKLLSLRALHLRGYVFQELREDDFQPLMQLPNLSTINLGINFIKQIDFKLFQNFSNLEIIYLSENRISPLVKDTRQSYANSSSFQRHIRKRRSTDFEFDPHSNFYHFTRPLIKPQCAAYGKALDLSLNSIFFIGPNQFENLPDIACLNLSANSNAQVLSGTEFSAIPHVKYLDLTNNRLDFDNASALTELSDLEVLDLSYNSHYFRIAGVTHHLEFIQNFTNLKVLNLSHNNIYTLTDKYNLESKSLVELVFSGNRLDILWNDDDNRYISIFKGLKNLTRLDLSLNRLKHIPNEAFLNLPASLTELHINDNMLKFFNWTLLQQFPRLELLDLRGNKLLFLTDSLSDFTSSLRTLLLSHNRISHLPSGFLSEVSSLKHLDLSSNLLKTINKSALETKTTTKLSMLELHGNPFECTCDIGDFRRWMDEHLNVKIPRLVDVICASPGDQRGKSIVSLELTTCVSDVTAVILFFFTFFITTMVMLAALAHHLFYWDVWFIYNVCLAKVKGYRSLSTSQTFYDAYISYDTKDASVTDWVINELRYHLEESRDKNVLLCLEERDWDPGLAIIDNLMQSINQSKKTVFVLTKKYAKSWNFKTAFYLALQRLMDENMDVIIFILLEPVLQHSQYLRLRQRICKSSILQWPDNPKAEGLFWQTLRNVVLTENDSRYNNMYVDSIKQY
The assay is described as follows: TLR8 inhibition reporter assay (HEK-Blue cells, SEAP reporter). It counts as cell-based. To be noted: HEK-Blue cells overexpressing human TLR8, stimulated with R848 15.9 μM, 22 hour incubation. On the procedure: as §1, §2

With `COc1ccc(-c2[nH]c3cnc(-c4ccc(N5CCN(C(C)C)CC5)cc4)cc3c2C)cc1OC` [Example 1, 2-(3,4-Dimethoxyphenyl)-5-(4-(4-isopropylpiperazin-1-yl)phenyl)-3-methyl-1H-pyrrolo[2,3-c]pyridine], the values for the IC50 in assay [1] and in assay [2] were 1.7 µM and 21 µM, respectively.
As to `COc1ccc(-c2c(C)[nH]c3cnc(-c4ccc(N5CCN(C(C)C)CC5)cc4)cc23)cc1OC` [Example 2, 3-(3,4-dimethoxyphenyl)-5-(4-(4-isopropylpiperazin-1-yl)phenyl)-2-methyl-1H-pyrrolo[2,3-c]pyridine], the IC50 was 2.7 µM in assay [1] and 29 µM in assay [2].
Consider `COc1ccc(-c2c(C)n(C)c3cnc(-c4ccc(N5CCN(CC(C)(C)O)CC5)cc4)cc23)cc1OC` [Example 3, 1-(4-(4-(3-(3,4-Dimethoxyphenyl)-1,2-dimethyl-1H-pyrrolo[2,3-c]pyridin-5-yl)phenyl)piperazin-1-yl)-2-methylpropan-2-ol], for which the IC50 in assay [1] was 3.3 µM; in assay [2], 37.7 µM.
For the compound `COc1ccc(-c2c(C)[nH]c3cnc(C4CCN(C5CCN(C(=O)OCc6ccccc6)CC5)CC4)cc23)cc1OC` [Example 4, Benzyl 4-(3-(3,4-dimethoxyphenyl)-2-methyl-1H-pyrrolo[2,3-c]pyridin-5-yl)-[1,4′-bipiperidine]-1′-carboxylate], the IC50 in assay [1] amounted to 9.5 µM; in assay [2], 23.5 µM.
In the same order, the values of `COc1ccc(-c2c(C)[nH]c3cnc(C4CCN(C(=O)C5CCN(C6CC6)CC5)CC4)cc23)cc1OC` [Example 5, (1-Cyclopropylpiperidin-4-yl)(4-(3-(3,4-dimethoxyphenyl)-2-methyl-1H-pyrrolo[2,3-c]pyridin-5-yl)piperidin-1-yl)methanone] are 8.2 µM and over 50 µM.
In the same order, the values of `COc1ccc(-c2c(C)[nH]c3cnc(C4CCN(c5cc(C)nc(C)c5)CC4)cc23)cc1OC` [Example 6, 3-(3,4-Dimethoxyphenyl)-5-(1-(2,6-dimethylpyridin-4-yl)piperidin-4-yl)-2-methyl-1H-pyrrolo[2,3-c]pyridine] are 8 µM and 23.3 µM.
Turning to `COc1ccc(-c2cc3cnc(-c4ccc(N5CCN(CC6CC6)CC5)cc4)cc3n2C)cc1OC` [Example 9, 6-(4-(4-(Cyclopropylmethyl)piperazin-1-yl)phenyl)-2-(3,4-dimethoxyphenyl)-1-methyl-1H-pyrrolo[3,2-c]pyridine], the IC50 is 2.9 µM in assay [1] and 1.5 µM in assay [2].
In the case of `COc1ccc(-c2cc3cnc(-c4ccc(N5CCN(C6CCC6)CC5)cc4)cc3n2C)cc1OC` [Example 10, 6-(4-(4-Cyclobutylpiperazin-1-yl)phenyl)-2-(3,4-dimethoxyphenyl)-1-methyl-1H-pyrrolo[3,2-c]pyridine], the IC50 is 13.8 µM in assay [1] and 5.2 µM in assay [2].
For `COc1ccc(-c2c(C)c3cc(C4CCN(C5CCN(CC(C)C)CC5)CC4)ncc3n2C)cc1OC` [Example 13, 2-(3,4-dimethoxyphenyl)-5-(1′-isobutyl-[1,4′-bipiperidin]-4-yl)-1,3-dimethyl-1H-pyrrolo[2,3-c]pyridine], in that order: 17.3 µM and over 50 µM.
For `COc1ccc(-c2c(C)[nH]c3cnc(C4CCN(C5CCN(C(=O)c6ccccc6)CC5)CC4)cc23)cc1OC` [Example 14, (4-(3-(3,4-dimethoxyphenyl)-2-methyl-1H-pyrrolo[2,3-c]pyridin-5-yl)-[1,4′-bipiperidin]-1′-yl) (phenyl)methanone], in that order: 8.2 µM and over 50 µM.
In the same order, the values of `COc1ccc(-c2c(C)[nH]c3cnc(C4CCN(C5CCN(C(=O)C(C)C)CC5)CC4)cc23)cc1OC` [Example 15, 1-(4-(3-(3,4-dimethoxyphenyl)-2-methyl-1H-pyrrolo[2,3-c]pyridin-5-yl)-[1,4′-bipiperidin]-1′-yl)-2-methylpropan-1-one] are 14 µM and over 50 µM.
As to `COc1ccc(-c2c(C)[nH]c3cnc(C4CCN(C(=O)CN5CCCCC5)CC4)cc23)cc1OC` [Example 16, 1-(4-(3-(3,4-dimethoxyphenyl)-2-methyl-1H-pyrrolo[2,3-c]pyridin-5-yl)piperidin-1-yl)-2-(piperidin-1-yl)ethan-1-one], the IC50 in assay [1] was determined as 5.7 µM; in assay [2] it was 47.9 µM.
In the same order, the values of `COc1ccc(-c2c(C)n(C)c3cnc(C4CCN(C5CCN(CC(C)C)CC5)CC4)cc23)cc1OC` [Example 17, 3-(3,4-dimethoxyphenyl)-5-(1′-isobutyl-[1,4′-bipiperidin]-4-yl)-1,2-dimethyl-1H-pyrrolo[2,3-c]pyridine] are 2.3 µM and over 50 µM.
In the same order, the values of `COc1ccc(-c2c(C)n(C)c3cnc(C4CCN(C5CCN(C(=O)C(C)C)CC5)CC4)cc23)cc1OC` [Example 18, 1-(4-(3-(3,4-dimethoxyphenyl)-1,2-dimethyl-1H-pyrrolo[2,3-c]pyridin-5-yl)-[1,4′-bipiperidin]-1′-yl)-2-methylpropan-1-one] are 13.6 µM and over 50 µM.
In the same order, the values of `COc1ccc(-c2c(C)n(C)c3cnc(C4CCN(C5CCN(C(=O)c6ccccc6)CC5)CC4)cc23)cc1OC` [Example 19, (4-(3-(3,4-dimethoxyphenyl)-1,2-dimethyl-1H-pyrrolo[2,3-c]pyridin-5-yl)-[1,4′-bipiperidin]-1′-yl)(phenyl)methanone] are 5.2 µM and over 50 µM.
As to `CCOC(=O)N1CCC(N2CCC(c3cc4c(-c5ccc(OC)c(OC)c5)c(C)n(C)c4cn3)CC2)CC1` [Example 20, ethyl 4-(3-(3,4-dimethoxyphenyl)-1,2-dimethyl-1H-pyrrolo[2,3-c]pyridin-5-yl)-[1,4′-bipiperidine]-1′-carboxylate], the IC50 in assay [1] was 9.2 µM; in assay [2], over 50 µM.
Turning to `COc1ccc(-c2c(C)[nH]c3cnc(C4CCN(C(=O)CN5CCCC5)CC4)cc23)cc1OC` [Example 21, 1-(4-(3-(3,4-dimethoxyphenyl)-2-methyl-1H-pyrrolo[2,3-c]pyridin-5-yl)piperidin-1-yl)-2-(pyrrolidin-1-yl)ethan-1-one], the values for the IC50 in assay [1] and in assay [2] were 26 µM and over 50 µM, respectively.

For orientation: IC50 means the concentration at which inhibition is half-maximal.
